The values below come from patent publication US6875761B2 (Eisai Co., Ltd., priority 1997, dated 2005).

The structures appear in SMILES notation. Structures can show the parent of a compound that is named as a salt.

The melting point is the temperature of the solid-liquid transition.

For `CCN1CCN(c2nc(-c3ccc(C(=O)NC)cc3)cc3ccsc23)CC1` (as salt: hydrochloride), the melting point lay in the range of 150.5 to 152 °C.
In turn, `CCN1CCN(c2nc(/C=C(\C)c3cccc(N4CCOCC4)c3)cc3ccccc23)CC1` (as salt: oxalate) [Example 207, 3-{(E)-2-Methyl-2-[3-(4-Morpholinyl)Phenyl]Ethenyl}-1-(4-Ethylpiperazin-1-Yl)Isoquinoline Oxalate] yielded a melting point of 190 to 192 °C.
`CCS(=O)(=O)NCc1ccc(-c2cc3ccccc3c(N3CCN(CCO)CC3)n2)cc1` (as salt: hydrochloride) [Example 243, 3-(4-ethylsulfonylaminomethylphenyl)-1-[4-(2-hydroxyethyl)piperazin-1-yl]isoquinoline Hydrochloride] returned a melting point of 171 to 174 °C.
Next, `CCN1CCN(c2nc(-c3ccc(CC(C)(C)O)cc3)cc3ccccc23)CC1` (as salt: oxalate) [Example 377, 1-(4-Ethylpiperazin-1-yl)-3-[4-(2-Hydroxy-2-Methylpropyl)Phenyl]Isoquinoline Oxalate]: 184 to 186 °C (dec.).
For the compound `CCN1CCN(c2nc(-c3ccc(C(F)CCO)cc3)cc3ccccc23)CC1` (stereo not shown) (as salt: hydrochloride) [Example 27, 1-(1-Ethylpiperazin-4-yl)-3-[4-(3-hydroxy-1-fluoropropyl)phenyl]isoquinoline], the melting point was 141 to 146 °C.
On to `CCN1CCN(c2nc(C#CCN3CCOCC3)cc3ccccc23)CC1` (as salt: oxalate) [Example 180, 3-[3-(4-Morpholinyl)-1-Propynyl]-1-(4-Ethylpiperazin-1-Yl)Isoquinoline Oxalate], for which the melting point fell in the range of 231 to 233 °C.
With `CCC(F)c1ccc(-c2cc3ccccc3c(N3CCN(CC)CC3)n2)cc1` (stereo not shown) (as salt: hydrochloride) [Example 5, 1-(4-ethylpiperazin-1-yl)-3-[4-(1-fluoropropyl)phenyl]isoquinoline Hydrochloride] the figure was 147 to 149 °C.
Consider `CCN1CCN(c2nc(-c3ccc(OC)cc3OC)cc3ccccc23)CC1` (as salt: hydrochloride) [Example 12, 3-(2,4-dimethoxyphenyl)-1-(4-ethylpiperazin-1-yl)isoquinolin Dihydrochloride], for which the melting point fell in the range of 145 to 148 °C.
In turn, `CCN1CCN(c2nc(C#CC(=O)c3ccccc3)cc3ccccc23)CC1` (as salt: oxalate) [Example 184, 1-(1-Ethylpiperazin-4-Yl)-3-Benzoylethynylisoquinoline Oxalate] showed a melting point of 161 to 163 °C.
The compound `CCN1CCN(c2nc(-c3ccc(CC(C)O)cc3)cc3ccsc23)CC1` (stereo not shown) (as salt: hydrochloride) [Example 436, 7-(4-ethylpiperazin-1-yl)-5-[4-(2-hydroxypropyl)phenyl]thieno[2,3-c]pyridine dihydrochloride] registered a melting point of 66 to 67 °C.
`CCN1CCN(c2nc(-c3cccc(OC)c3)cc3ccccc23)CC1` (as salt: hydrochloride) [Example 9, 1-(4-ethylpiperazin-1-yl)-3-(3-methoxyphenyl)isoquinone Dihydrochloride] gave a melting point of 108 to 110 °C.
With `CCN1CCN(c2nc(-c3ccc(C(=O)NC4CCCCC4)cc3)cc3ccsc23)CC1` (as salt: hydrochloride) [Example 273, dihydrochloride], the melting point was 160 to 165 °C.
On to `CCN1CCN(c2nc(-c3ccc(CC(C)(C)CO)cc3)cc3ccccc23)CC1` (as salt: oxalate) [Example 389, 1-(4-Ethylpiperazin-1-yl)-3-[4-(3-Hydroxy-2,2-Dimethylpropyl)Phenyl]Isoquinoline Oxalate], for which the melting point is 194 to 195 °C.
In turn, `OCCOc1ccc(-c2cc3sccc3c(N3CCN(CCF)CC3)n2)cc1` (as salt: hydrochloride) [Example 295, 4-[4-(2-fluoroethyl)piperazin-1-yl]-6-[4-(2-hydroxyethoxy)phenyl]thieno[3,2-c]pyridine] showed a melting point of 138 to 140 °C.
As for `CCN1CCN(c2nc(-c3ccc(OCCO)c(F)c3)cc3ccccc23)CC1` (as salt: hydrochloride) [Example 369, 1-(4-ethylpiperazin-1-yl)-3-[3-fluoro-4-(2-hydroxyethoxy)phenyl]isoquinoline dihydrochloride], the melting point was in the range of 119 to 120 °C.
As to `CCN1CCN(c2nc(-c3ccc(OC[C@@H](C)O)cc3)cc3ccccc23)CC1` (as salt: hydrochloride) [Example 403, 1-(4-ethylpiperazin-1-yl)-3-[4-(2-hydroxypropoxy)phenyl]isoquinoline Dihydrochloride], the melting point was in the range of 112 to 114 °C.
In turn, `CCN1CCN(c2nc(-c3cc(OC)ccc3OC)cc3ccccc23)CC1.Cl` gave a melting point of 189 to 191 °C.
As to `COc1ccc(-c2cc3ccsc3c(N3CCN(CCO)CC3)n2)cc1` (as salt: hydrochloride) [Example 276, 5-(4-methoxyphenyl)-7-[4-(2-hydroxyethyl)piperazin-1-yl]thieno[2,3-c]pyridine hydrochloride], the melting point fell in the range of 129 to 131 °C.
For the compound `CCN1CCN(c2nc(-c3ccc(OCCOC)nc3)cc3ccsc23)CC1` (as salt: hydrochloride) [Example 269, 5-[2-(2-methoxyethoxy)pyridin-5-yl]-7-(4-ethylpiperazin-1-yl)-thieno[2,3-c]pyridine hydrochloride], the melting point was 116 to 118 °C.
Next, `CN1CCN(c2nc(-c3ccc(OCCO)cc3)cc3sccc23)CC1` (as salt: hydrochloride) [Example 279, 4-(4-methylpiperazin-1-yl)-6-[4-(2-hydroxyethoxy)phenyl]thieno[3,2-c]pyridine hydrochloride]: 148 to 150 °C; `CCN1CCN(c2nc(-c3ccc(OCCO)nc3)cc3ccsc23)CC1` (as salt: oxalate) [Example 268, 5-[2-(2-hydroxyethoxy)pyridin-5-yl]-7-(4-ethylpiperazin-1-yl)thieno[2,3-c]pyridine Oxalate]: 124 to 125 °C; `CCCN1CCN(c2nc(-c3ccc(OC)cc3)cc3ccccc23)CC1` (as salt: hydrochloride): 220 to 226 °C.
Turning to `CCCC(=O)Nc1ncc(-c2cc3ccccc3c(N3CCN(CC)CC3)n2)cn1` (as salt: hydrochloride) [Example 174, 3-(2-Propylcarbonylaminopyrimidin-5-Yl)-1-(4-Ethylpiperazin-1-Yl)Isoquinoline Hydrochlroide], the melting point lay in the range of 216 to 219 °C.
`CCN1CCN(c2nc(C#Cc3ccccn3)cc3ccccc23)CC1` (as salt: oxalate) [Example 179, 1-(1-Ethylpiperazin-4-Yl)-3-(2-Pyridyl)Ethynylisoquinoline Oxalate] returned a melting point of 148 to 154 °C.
With `CCN1CCN(c2nc(-c3ccc(CCCO)c(Cl)c3)cc3ccsc23)CC1` (as salt: oxalate) [Example 257, 5-[4-(3-hydroxypropyl)-3-chlorophenyl]-7-(4-ethylpiperazin-1-yl)thieno[2,3-c]pyridine Oxalate] the figure was 114 to 116 °C.
In turn, `CCN1CCN(c2nc(-c3ccc(N4CC[S+]([O-])CC4)nc3)cc3ccccc23)CC1` (as salt: hydrochloride) [Example 151, 1-(4-ethylpiperazin-1-yl)-3-[2-(S-oxythiomorpholin-4-yl)pyridin-5-yl]isoquinoline trihydrochloride] had a melting point of 170 °C.
`CCN1CCN(c2nc(CCc3ccc(OC)cc3)cc3ccccc23)CC1` (as salt: hydrochloride) [Example 106, 1-(1-Ethylpiperazin-4-yl)-3-(4-methoxyphenethyl)isoquinoline] showed a melting point of 224 to 227 °C.
For `CCN1CCN(c2nc(-c3ccc(N4CCC(CO)CC4)nc3)cc3ccccc23)CC1` (as salt: hydrochloride) [Example 154, 1-(4-ethylpiperazin-1-yl)-3-[2-(4-hydroxymethylpiperidin-1-yl)pyridin-5-yl]isoquinoline trihydrochloride], the melting point is 188 °C.
With `CCOc1ccc(-c2cc3ccccc3c(N3CCN(CC)CC3)n2)cc1.Cl.Cl`, the melting point is 197 to 198 °C (dec.).
As to `CCN1CCN(c2nc(Sc3ccccn3)cc3ccccc23)CC1` (as salt: oxalate) [Example 378, 1-(4-Ethylpiperazin-1-yl)-3-(2-Pyridylthio)Isoquinoline Oxalate], the melting point was 178 to 181 °C (dec.).
With `CCN1CCN(c2nc(C=C(COC)c3ccccc3)cc3ccccc23)CC1` (stereo in doubt) (as salt: oxalate) [Example 208, 3-[(E)-2-Methoxymethyl-2-Phenylethenyl]-1-(4-Ethylpiperazin-1-Yl)Isoquinoline Oxalate] the figure was 180 to 182 °C; with `CCN1CCN(c2nc(-c3ccccc3OC)cc3ccccc23)CC1` (as salt: hydrochloride), 133 to 135 °C; with `CCN1CCN(c2nc(-c3ccc(CO)c(CO)c3)cc3ccccc23)CC1` (as salt: hydrochloride) [Example 394, 1-(4-Ethylpiperazin-1-yl)-3-[(3,4-Dihydroxymethyl)Phenyl]Isoquinoline Dihydrochloride], 130.5 to 132 °C (dec.).
Take `CCN1CCN(c2nc(-c3ccc(C(O)C4CCCCC4)cc3)cc3ccsc23)CC1` (stereo not shown) (as salt: hydrochloride) [Example 457, 7-(4-Ethylpiperazin-1-yl)-5-[4-(cyclohexylhydroxymethyl)phenyl]thieno[2,3-c]pyridine dihydrochloride]: the melting point is 127.5 to 129 °C.
Turning to `CCN1CCN(c2nc(C(O)c3ccccc3OC)cc3ccccc23)CC1` (stereo not shown) (as salt: oxalate), the melting point lay in the range of 100 to 103 °C.
Turning to `CCN1CCN(c2nc(/C=C/c3ccc(OCCO)cc3)cc3ccsc23)CC1` (as salt: hydrochloride) [Example 431, 7-(4-ethylpiperazin-1-yl)-5-[4-(2-hydroxyethoxy)styryl]thieno[2,3-c]pyridine hydrochloride], the melting point was 143 to 145 °C.
`CCN1CCN(c2nc(-c3ccc(COCCO)cc3)cc3ccccc23)CC1` (as salt: hydrochloride) [Example 44, 3-[4-(2-Hydroxyethoxylmethylphenyl]-1-(4-ethylpiperazin-1-Yl)Isoquinoline Hydrochloride] registered a melting point of 129 to 131 °C.
